Measurements taken from article PMC6940896, “Development of a Highly Efficient Hybrid Peptide That Increases Immunomodulatory Activity Via the TLR4-Mediated Nuclear Factor-κB Signaling Pathway” (International Journal of Molecular Sciences, 2019).
No end group written: not given here.

Assays:
splenocyte T lymphocytes = assay: T lymphocyte subsets in splenocytes by flow cytometry; assay type: in vivo, mouse; details: versus group treated with CTX alone, peptide 10 mg/kg ip days 4-10, n = 12
Experimental: The spleen was collected, ground, and passed through 40-μm-mesh cell strainers filled with PBS to harvest the cell suspension. The cells were stained with CD3- PerCP, CD4-APC, and CD8-FITC for 30 min at 4 °C for T lymphocyte measurements. The results were analyzed using a Guava® easyCyte^TM 6-21 system and Guavasoft 3.1.1 software (Millipore, Burlington, MA, USA).

TLR4/MD-2 = target: T1, TLR4/MD-2 (Mus musculus, UniProt Q9JHF9+Q9QUK6); assay: Cytokine production in RAW264.7 cells with or without TLR4/MD-2 mAb pretreatment; assay type: cell-based; details: then 10 μg/mL peptide 24 h, ELISA, n = 3
T1 construct: endogenous in cells; host or cells: RAW264.7
T1 sequence (Q9QUK6 26-835): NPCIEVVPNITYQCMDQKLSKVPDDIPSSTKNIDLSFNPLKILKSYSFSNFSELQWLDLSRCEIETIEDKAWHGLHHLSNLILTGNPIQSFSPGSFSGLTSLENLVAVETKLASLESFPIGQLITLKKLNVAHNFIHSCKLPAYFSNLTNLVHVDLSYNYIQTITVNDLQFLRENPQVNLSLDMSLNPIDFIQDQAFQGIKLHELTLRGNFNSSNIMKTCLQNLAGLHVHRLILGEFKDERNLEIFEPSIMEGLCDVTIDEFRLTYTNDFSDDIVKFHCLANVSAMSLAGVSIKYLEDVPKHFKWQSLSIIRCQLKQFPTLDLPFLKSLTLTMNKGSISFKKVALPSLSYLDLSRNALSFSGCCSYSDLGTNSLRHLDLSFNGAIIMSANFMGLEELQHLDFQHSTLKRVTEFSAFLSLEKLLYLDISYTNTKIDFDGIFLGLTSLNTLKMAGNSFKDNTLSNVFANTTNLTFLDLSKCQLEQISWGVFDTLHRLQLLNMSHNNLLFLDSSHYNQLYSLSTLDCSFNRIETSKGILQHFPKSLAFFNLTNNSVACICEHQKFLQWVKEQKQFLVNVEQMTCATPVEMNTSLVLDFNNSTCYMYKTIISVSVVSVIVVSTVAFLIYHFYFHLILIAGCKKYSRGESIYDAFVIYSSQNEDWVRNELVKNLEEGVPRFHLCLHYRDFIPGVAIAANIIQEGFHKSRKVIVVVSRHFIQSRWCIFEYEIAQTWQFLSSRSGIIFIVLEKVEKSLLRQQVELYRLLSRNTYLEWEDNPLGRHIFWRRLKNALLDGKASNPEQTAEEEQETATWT
T1 sequence (Q9JHF9 19-160): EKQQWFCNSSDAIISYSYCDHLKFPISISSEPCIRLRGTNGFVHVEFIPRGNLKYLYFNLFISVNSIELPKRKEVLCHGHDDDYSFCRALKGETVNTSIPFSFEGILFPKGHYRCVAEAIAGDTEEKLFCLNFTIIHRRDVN
Experimental: RAW264.7 cells were treated with PBS or an anti-mouse mAbTLR4/MD-2 complex (MTS510 Ab) (eBioscience, San Diego, CA, USA) at 37 °C for 1 h, and RAW264.7 cells were treated with or without 10 μg/mL peptides for 24 h at 37 °C in a moist atmosphere (5% CO2, 95% air). Levels of TNF-α, IL-6, and IL-1β in the culture supernatant were detected by ELISA.

TLR4-NF-κB pathway = assay: Western blot of TLR4-NF-κB pathway proteins in CTX-treated mice; assay type: in vivo, mouse; details: CTX-treated mice with or without LTAa, n = 3
Experimental: Sigma-Aldrich, St. Louis, MO, USA) group, a LL-37 group, a Tα1 group, and a LTAa group. For the first 3 days, CTX (80 mg/kg mouse weight) was administered intraperitoneally once daily to establish the immunosuppressed animal model. From days 4 to 10 (7 days), peptides (10 mg/kg mouse weight) were administered intraperitoneally each day. The CTX group was only treated with CTX, and the control group was given sterile saline. The dose volume was 200 μL. Twenty-four hours after the last dose, the mice were killed and their tissues and blood collected for analysis. The body weight index was calculated in the following way:(2) Index (%)=final body weight-[…] body weight/initial body weight ×100% Whole protein in the serum was collected using a whole-protein extraction kit (Nanjing KeyGEN Biotech, Nanjing, China) according to the manufacturer's instructions. The protein concentration was measured using a bicinchoninic acid kit (Nanjing KeyGEN Biotech). The different proteins were separated by sodium dodecyl sulfate polyacrylamide gel electrophoresis and transferred onto polyvinylidene difluoride membranes (Bio-Rad). […]

IGKEFKRIVQRIKDFLRNLVPRTEKEKKEVVE [LTAa]
CD4+:CD8+ T lymphocyte ratio (splenocyte T lymphocytes): higher | TNF-α, IL-6 and IL-1β production, PBS pretreatment (TLR4/MD-2; RAW264.7, PBS 1 h): significant increase | TNF-α, IL-6 and IL-1β production induced by LTAa after TLR4/MD-2 mAb pretreatment (TLR4/MD-2; RAW264.7, TLR4/MD-2 mAb (MTS510 Ab) 1 h): significantly inhibited | TLR4, MyD88 and TRAF6 expression (TLR4-NF-κB pathway): increasing
